Results reported in patent EP1200114B1, “PPAR DELTA INHIBITORS FOR THE TREATMENT OF CARDIOVASCULAR DISEASES” (priority 1999, dated 2001).
“Also recorded” adds a separate entry of the source.

Assays:
PNT1A = assay: Prostate cell growth, colorimetric cell number assay; format: cell-based; conditions: low concentrations, 7 days
Procedure: (§1) Cell lines were plated at 2,500 cells per well in a 24-well plate and cultured in RPMI containing 5% dextran-coated charcoal-treated FCS. Increasing concentrations of Compound F or LG 100268 were included in the culture medium and the cultures were maintained for 7 days with changes of drugs and medium every 48 hours.

LNCaP = assay: as above; format: cell-based; conditions: low concentrations, 7 days
Procedure: as §1

THP-1 cells = assay: THP-1 foam cell model (PMA-activated cells, Oil Red O lipid staining); format: cell-based, human; conditions: for lipid accumulation: PMA-treated THP-1 cells, Oil Red O staining; for foam cell formation: adherent PMA-treated THP-1 cells
Text: Treatment was continued for 3 days and the cells fixed in 0.66M paraformaldehyde, stained with a saturating solution of Oil Red O and then counterstained with haematoxylin.

parental THP-1 cells [1] = system: parental THP-1 cells
Procedure: (§2) Cells were treated overnight with 5ng/ml PMA and scored for differentiation (adherence to culture dish) and viability (trypan blue exclusion).
(§3) Parental and PPARδ anti-sense cells were incubated with PMA and an inhibitor of PKC activity (Bis) and two inhibitors of PLA2 activity (OBAA and mepacrine). These inhibitors were included at concentrations used in previous studies for specific inhibition.

[2] = system: PPARδ anti-sense cell line; assay: Viability (trypan blue exclusion) of PPARδ anti-sense cells treated with PMA; format: cell-based, human; conditions: incubated with PMA and inhibitor
Procedure: as §2, §3

parental THP-1 cells [3] = assay: PMA-induced differentiation (adherence to culture dish) of parental THP-1 cells; format: cell-based, human; conditions: incubated with PMA and inhibitor
Procedure: as §2, §3

ApoE = ApoE mRNA by TAQMAN in THP-1 cells; format: cell-based, human; conditions: parental THP-1 cells treated with PMA and linoleic acid
Procedure: Total RNA was prepared from parental THP-1 cells treated with PMA (THP-1), or PMA and linoleic acid (THP-1+FA), and untreated PPARδ over-expressing cell line (DELTA). cDNA was prepared from these RNA samples and the cDNA was analysed for ApoE sequences using TAQMAN procedures. The result shown is relative expression normalised for β-actin expression and the error bars represent the standard deviation in duplicate samples.

Row | Structure (SMILES) | lipid accumulation (THP-1 cells) | foam cell formation (THP-1 cells) | PMA-induced "death" of the PPARδ anti-sense cell line [2] | differentiation of parental THP-1 cells (parental THP-1 cells [3]) | also measured
1 | Cc1cc2c(cc1C1(c3ccc(C(=O)O)cn3)CC1)C(C)(C)CCC2(C)C [LG 100268] | Increased lipid accumulation | promoted foam cell formation in co-operation with fatty acids | – | – | growth stimulated (PNT1A): also seen; growth stimulated (LNCaP): also seen
2 | CCN(CC)CCCC(C)Nc1c2ccc(Cl)cc2nc2ccc(OC)cc12 (centres unmarked) [Mepacrine, 6-chloro-9-[(4-diethylamino)-1-methylbutyl]amino-2-methoxy-acridine] | – | – | did not block | prevented | toxicity in the parental cells (parental THP-1 cells [1]): sign of toxicity
3 | Cc1cccc(Nc2cc(Cl)nc(SCC(=O)O)n2)c1C [Wy 14,643] | – | no effect | – | – | –
4 | CN(C)CCCn1cc(C2=C(c3c[nH]c4ccccc34)C(=O)NC2=O)c2ccccc21 [Bis, bisindoylmaleamide I] | – | – | did not block | prevented | –
5 | CCCCCCCCCCCCCCCCCCc1ccc(C(=O)C=CC(=O)O)cc1 [OBAA, 3-(4-octadecyl)benzoylacrylic acid] | – | – | did not block | prevented | –
6 | CCCCC/C=C\C/C=C\CCCCCCCC(=O)O [linoleic acid] | Increased lipid accumulation; also recorded: leads to the accumulation of lipid droplets in the cytoplasm | – | – | – | apoE mRNA levels (ApoE): reduced
